The text below walks through data of ChEMBL document CHEMBL1201862, “PubChem BioAssay data set” (2004).

Test [1] addresses 1-phosphatidylinositol 4,5-bisphosphate phosphodiesterase gamma-1 (Homo sapiens, UniProt P19174). As to the kind of experiment: Counterscreen for inhibitors of phospholipase C isozymes (PLC-B3): Fluorescence-based biochemical high throughput dose response assay to identify inhibitors of phospholipase C isozymes (PLC-gamma1). In general terms: A counterscreen serves to expose hits that act by an unwanted route or on another target.

Test [2] concerns the target 1-phosphatidylinositol 4,5-bisphosphate phosphodiesterase beta-3 (Homo sapiens, UniProt Q01970). As to the kind of experiment: Fluorescence-based biochemical high throughput dose response assay to identify inhibitors of phospholipase C isozymes (PLC-B3).
Test [3] in a line: cells.
The nature of test [4]: viability loss in HEK293T cells – cell-based, cherry-picks, cytotoxicity control for HIV Vif inhibitor project, dose response (AID 652208). The format is functional.
In test [5] the target is ADP-ribosylation factor GTPase-activating protein 1 (Rattus norvegicus, UniProt Q62848). As to the kind of experiment: Fluorescence polarization-based biochemical high throughput dose response screening assay to identify inhibitors of ADP-ribosylation factor GTPase activating protein 1 (ARFGAP1). The test is classed as functional.
Test [6] deals with T1, Alkaline phosphatase, tissue-nonspecific isozyme (Homo sapiens, UniProt P05186).
T1 sequence (P05186 whole entry): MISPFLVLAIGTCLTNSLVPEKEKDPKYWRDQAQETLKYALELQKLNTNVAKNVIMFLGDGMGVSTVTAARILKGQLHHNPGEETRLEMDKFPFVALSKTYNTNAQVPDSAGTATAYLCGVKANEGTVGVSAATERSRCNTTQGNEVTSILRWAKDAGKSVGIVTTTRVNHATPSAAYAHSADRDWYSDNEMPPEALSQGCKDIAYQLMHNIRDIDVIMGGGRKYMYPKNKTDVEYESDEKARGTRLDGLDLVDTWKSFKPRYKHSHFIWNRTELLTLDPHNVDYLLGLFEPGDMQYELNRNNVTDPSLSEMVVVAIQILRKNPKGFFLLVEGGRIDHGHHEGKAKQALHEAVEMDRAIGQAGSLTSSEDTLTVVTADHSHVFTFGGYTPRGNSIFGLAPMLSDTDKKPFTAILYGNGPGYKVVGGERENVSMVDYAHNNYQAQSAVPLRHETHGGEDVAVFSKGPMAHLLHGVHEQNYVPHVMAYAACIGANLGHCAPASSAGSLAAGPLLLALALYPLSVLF
As to the kind of experiment: activation of tissue-nonspecific alkaline phosphatase – biochemical, TNAP isozyme, human IAP uHTS hits, selectivity assay for human IAP activator project, dose response (AID 488886).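 Further: potency of compounds raising TNAP activity as a selectivity check on IAP activators.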 The test is classed as functional.

Test [7] addresses T2, Intestinal-type alkaline phosphatase (Homo sapiens, UniProt P09923). As to the kind of experiment: activation of human intestinal alkaline phosphatase – biochemical, luminescent, uHTS hits, set 2, dose response (AID 488817).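 Further: potency of activators that raise enzyme activity.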 The format is functional.
The target of test [8] is T2, Intestinal-type alkaline phosphatase. As to the kind of experiment: human intestinal alkaline phosphatase activators, dose response, biochemical, luminescence, uHTS hits (AID 463120). The format is functional.
Test [9] addresses Intestinal-type alkaline phosphatase (Mus musculus, UniProt P24822). As to the kind of experiment: PubChem AID 488875. The format is functional.
A further test concerns the target Albumin (Bos taurus, UniProt P02769). As to the kind of experiment: Counterscreen for inhibitors of T-cell receptor (TCR)-CD3 interaction: Fluorescence-based biochemical high throughput dose response assay to identify inhibitors of T-cell receptor (TCR)-CD3 interaction using a TAMRA-labeled BSA probe. The test is classed as functional.
A short description of test [10]: potency of ADAM10 substrate cleavage blockers – biochemical, QFRET, dose response (AID 743254).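 Further: ADAM10 enzyme with the DM2 quenched FRET peptide as substrate; EDANS fluorescence gain as the protease cuts the substrate; inhibitor potency against ADAM10 proteolytic activity.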
A short description of test [11]: Luminescence Cell-Based Dose Retest to Confirm Inhibitors of Cancer Stem Cells. [Related pubchem assays (depositor defined):AID2717, AID2721]. To be noted: Homo sapiens. The test is classed as functional.
Test [12] has as its target Disintegrin and metalloproteinase domain-containing protein 17 (Homo sapiens, UniProt P78536). As to the kind of experiment: inhibition of ADAM17 substrate cleavage – biochemical, quenched FRET substrate, counter-screen for ADAM10 exosite inhibitor project, dose response (AID 743253).
A further test has as its target Galanin receptor type 3 (Homo sapiens, UniProt O60755). As to the kind of experiment: Fluorescence-based cell-based primary high throughput dose response assay to identify antagonists of the Galanin Receptor 3 (GalR3). The test is classed as functional.
A short description of test [13]: cells. The format is functional, cell-based. To be noted: HEK-CNG.
The next test deals with Keap1/Nrf2 (Homo sapiens, UniProt Q14145). As to the kind of experiment: disruptors of Keap1 binding to Nrf2 peptide – biochemical, fluorescence polarization, cherry-picked samples, dose response (AID 588683). Background: Polarisation of emitted light reports the rotation of a fluorescent probe.
Test [14] in a line: disruptors of Keap1/Nrf2 protein interaction – biochemical, fluorescence polarization, dry powder, set 3, dose response (AID 651806).
The target in test [15] is T3, Fatty acid synthase (Homo sapiens, UniProt P49327). As to the kind of experiment: inhibition of human FAS-TE enzyme activity – biochemical, kinetic fluorescence intensity, dose response (AID 624326).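 Further: rate of fluorescence rise from hydrolysis of a fluorogenic O-methyl fluorescein ester substrate.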 The format is functional.
Test [16] deals with T3, Fatty acid synthase. As to the kind of experiment: inhibition of human FAS-TE enzyme activity – biochemical, endpoint fluorescence intensity, uHTS hits, dose response (AID 624327).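 Further: fluorescence from hydrolysis of an O-methyl fluorescein acyl ester substrate by the enzyme.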 The test is classed as functional.
For test [17], the target named is T3, Fatty acid synthase. As to the kind of experiment: inhibition of human FAS-TE enzyme activity – biochemical, endpoint fluorescence intensity, powder samples, SAR follow-up (AID 652164). The format is functional.
Another test concerns the target fMet-Leu-Phe receptor (Homo sapiens, UniProt P21462). As to the kind of experiment: formyl peptide receptor binders – dose response (AID 519). The format is functional.

Active and inactive are the calls of the source. Bounds are passed on as bounds.

T3 sequence (P49327 whole entry): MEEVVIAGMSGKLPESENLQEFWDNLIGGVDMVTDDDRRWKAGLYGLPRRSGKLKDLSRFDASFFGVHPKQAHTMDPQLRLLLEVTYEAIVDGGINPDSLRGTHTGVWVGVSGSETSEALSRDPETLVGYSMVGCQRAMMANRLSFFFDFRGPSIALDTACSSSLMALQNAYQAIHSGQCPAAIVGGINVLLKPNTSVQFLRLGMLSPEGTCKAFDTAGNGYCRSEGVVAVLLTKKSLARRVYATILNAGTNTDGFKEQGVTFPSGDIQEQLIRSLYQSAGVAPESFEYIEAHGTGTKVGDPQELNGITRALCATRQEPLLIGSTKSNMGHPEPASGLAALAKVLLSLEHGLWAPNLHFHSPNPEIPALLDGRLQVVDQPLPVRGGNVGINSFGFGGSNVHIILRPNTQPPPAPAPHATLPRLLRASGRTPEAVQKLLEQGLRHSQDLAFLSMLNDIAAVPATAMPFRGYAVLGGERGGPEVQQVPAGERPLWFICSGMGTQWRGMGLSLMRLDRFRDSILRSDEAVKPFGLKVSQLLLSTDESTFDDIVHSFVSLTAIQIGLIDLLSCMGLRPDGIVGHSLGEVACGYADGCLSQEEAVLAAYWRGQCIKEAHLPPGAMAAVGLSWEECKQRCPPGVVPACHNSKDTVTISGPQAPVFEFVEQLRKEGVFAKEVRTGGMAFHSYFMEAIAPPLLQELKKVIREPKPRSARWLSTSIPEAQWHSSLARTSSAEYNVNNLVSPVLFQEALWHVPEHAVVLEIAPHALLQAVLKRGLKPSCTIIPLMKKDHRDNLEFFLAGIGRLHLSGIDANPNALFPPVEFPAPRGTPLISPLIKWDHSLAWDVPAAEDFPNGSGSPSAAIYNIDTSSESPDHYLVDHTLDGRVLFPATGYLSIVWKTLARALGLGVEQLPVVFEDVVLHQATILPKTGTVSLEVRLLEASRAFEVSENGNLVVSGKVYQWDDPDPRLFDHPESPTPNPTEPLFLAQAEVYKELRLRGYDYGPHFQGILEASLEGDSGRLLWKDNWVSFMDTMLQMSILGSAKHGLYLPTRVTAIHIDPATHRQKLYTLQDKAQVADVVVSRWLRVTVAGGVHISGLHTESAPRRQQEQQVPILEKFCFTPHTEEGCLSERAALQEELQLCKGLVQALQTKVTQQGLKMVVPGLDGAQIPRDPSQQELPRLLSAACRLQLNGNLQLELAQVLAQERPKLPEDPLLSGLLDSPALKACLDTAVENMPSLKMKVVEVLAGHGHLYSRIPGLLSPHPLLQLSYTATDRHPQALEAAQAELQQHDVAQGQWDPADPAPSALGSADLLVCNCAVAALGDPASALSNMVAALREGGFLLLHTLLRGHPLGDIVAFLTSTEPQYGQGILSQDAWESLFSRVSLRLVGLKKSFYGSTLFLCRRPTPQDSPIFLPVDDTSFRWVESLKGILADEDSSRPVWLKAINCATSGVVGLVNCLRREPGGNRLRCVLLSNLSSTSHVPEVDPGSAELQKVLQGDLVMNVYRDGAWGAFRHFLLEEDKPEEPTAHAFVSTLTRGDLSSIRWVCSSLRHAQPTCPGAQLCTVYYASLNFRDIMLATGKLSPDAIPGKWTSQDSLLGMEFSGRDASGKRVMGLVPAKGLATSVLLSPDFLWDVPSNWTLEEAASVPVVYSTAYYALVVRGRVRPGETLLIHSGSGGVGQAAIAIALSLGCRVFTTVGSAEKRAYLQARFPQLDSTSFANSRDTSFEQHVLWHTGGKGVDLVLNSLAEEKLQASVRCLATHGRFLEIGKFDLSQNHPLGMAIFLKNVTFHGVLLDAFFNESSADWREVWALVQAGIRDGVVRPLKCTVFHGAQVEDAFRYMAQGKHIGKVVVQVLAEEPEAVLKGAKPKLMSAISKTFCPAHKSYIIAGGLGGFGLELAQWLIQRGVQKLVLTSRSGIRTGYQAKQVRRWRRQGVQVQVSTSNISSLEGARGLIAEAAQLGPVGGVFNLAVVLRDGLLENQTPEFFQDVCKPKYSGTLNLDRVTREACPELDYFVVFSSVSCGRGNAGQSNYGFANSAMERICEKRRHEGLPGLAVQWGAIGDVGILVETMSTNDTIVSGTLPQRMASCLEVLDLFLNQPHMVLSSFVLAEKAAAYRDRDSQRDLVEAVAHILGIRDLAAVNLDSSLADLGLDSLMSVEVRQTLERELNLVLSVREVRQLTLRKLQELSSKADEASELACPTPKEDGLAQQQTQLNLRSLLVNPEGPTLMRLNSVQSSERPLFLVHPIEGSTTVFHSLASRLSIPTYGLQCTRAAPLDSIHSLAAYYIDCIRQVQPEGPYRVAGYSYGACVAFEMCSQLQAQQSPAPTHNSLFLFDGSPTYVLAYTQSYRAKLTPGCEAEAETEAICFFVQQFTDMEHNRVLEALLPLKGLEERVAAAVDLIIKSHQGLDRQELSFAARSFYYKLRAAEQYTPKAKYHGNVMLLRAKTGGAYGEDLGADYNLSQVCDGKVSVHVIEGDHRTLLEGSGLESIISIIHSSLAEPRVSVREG
T2 sequence (P09923 whole entry): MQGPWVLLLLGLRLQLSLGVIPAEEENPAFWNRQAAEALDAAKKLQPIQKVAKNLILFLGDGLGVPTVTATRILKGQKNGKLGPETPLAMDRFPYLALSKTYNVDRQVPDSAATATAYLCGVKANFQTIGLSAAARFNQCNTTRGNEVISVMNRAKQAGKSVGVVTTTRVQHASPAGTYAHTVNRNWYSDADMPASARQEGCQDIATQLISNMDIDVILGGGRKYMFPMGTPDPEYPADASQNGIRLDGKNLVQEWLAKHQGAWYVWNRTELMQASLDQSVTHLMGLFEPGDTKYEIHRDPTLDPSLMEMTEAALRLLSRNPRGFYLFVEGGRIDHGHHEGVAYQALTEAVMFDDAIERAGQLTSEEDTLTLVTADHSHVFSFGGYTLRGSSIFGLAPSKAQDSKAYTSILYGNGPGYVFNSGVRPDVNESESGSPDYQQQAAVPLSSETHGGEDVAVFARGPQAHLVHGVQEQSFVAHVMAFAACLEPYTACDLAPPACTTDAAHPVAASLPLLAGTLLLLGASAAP
Chain of Galanin receptor type 3 (O60755 whole entry): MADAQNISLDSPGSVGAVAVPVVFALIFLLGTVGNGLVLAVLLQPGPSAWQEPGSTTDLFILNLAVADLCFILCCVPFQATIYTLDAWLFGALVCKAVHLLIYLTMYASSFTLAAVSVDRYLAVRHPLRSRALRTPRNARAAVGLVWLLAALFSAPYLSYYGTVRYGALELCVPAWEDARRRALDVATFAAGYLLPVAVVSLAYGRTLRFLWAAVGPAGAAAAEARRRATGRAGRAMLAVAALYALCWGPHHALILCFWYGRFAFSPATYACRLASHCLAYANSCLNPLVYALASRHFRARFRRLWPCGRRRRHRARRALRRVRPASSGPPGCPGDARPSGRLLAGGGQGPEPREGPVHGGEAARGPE
Chain of 1-phosphatidylinositol 4,5-bisphosphate phosphodiesterase gamma-1 (P19174 whole entry): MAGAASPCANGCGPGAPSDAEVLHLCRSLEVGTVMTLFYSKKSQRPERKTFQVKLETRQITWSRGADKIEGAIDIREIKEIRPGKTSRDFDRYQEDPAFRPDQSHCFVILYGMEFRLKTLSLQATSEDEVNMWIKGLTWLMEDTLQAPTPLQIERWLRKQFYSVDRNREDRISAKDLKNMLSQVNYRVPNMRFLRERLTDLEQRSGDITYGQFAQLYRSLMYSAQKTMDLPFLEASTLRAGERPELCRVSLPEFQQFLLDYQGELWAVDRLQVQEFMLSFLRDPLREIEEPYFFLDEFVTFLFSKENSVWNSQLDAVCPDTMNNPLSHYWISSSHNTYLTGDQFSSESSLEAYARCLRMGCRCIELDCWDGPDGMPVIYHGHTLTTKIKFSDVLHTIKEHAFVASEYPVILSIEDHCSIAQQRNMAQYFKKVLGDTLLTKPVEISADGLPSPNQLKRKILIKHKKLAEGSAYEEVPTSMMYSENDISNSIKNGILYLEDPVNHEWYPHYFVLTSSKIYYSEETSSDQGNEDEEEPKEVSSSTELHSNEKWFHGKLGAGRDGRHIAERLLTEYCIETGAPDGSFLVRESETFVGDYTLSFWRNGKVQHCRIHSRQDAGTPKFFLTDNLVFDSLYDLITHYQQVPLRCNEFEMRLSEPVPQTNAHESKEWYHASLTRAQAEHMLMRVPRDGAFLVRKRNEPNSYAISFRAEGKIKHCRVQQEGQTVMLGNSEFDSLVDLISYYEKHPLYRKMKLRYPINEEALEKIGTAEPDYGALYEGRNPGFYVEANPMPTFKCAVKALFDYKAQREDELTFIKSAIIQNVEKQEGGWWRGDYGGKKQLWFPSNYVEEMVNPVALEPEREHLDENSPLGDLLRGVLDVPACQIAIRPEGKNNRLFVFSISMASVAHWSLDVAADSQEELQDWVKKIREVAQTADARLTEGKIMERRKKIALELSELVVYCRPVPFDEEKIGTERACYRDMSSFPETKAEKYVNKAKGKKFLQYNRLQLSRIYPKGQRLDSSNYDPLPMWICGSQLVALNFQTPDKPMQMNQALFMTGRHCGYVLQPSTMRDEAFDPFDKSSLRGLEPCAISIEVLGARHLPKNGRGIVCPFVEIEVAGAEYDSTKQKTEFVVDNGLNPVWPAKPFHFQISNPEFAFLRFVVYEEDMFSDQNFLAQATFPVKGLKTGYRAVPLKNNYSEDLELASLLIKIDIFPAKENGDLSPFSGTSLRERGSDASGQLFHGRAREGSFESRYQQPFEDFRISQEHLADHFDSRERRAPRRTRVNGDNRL
Chain of ADP-ribosylation factor GTPase-activating protein 1 (Q62848 whole entry): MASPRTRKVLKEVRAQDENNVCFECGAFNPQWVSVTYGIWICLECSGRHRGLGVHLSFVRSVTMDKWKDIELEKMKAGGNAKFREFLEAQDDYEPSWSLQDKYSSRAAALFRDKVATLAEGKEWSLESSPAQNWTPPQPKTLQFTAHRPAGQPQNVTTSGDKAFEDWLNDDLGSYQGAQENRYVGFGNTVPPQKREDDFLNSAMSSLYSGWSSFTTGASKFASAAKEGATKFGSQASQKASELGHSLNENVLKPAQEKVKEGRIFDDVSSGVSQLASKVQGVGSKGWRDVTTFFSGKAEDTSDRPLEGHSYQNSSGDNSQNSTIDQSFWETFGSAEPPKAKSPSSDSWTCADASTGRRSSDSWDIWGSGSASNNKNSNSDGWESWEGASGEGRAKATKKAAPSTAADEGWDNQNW

What is called IC50 is the point on the concentration scale where inhibition reaches its midpoint. For the compound `CCCCN=C(S)NNC(=O)c1csc(CC)c1`, the IC50 in [1] and in test [2] was > 122 µM (inactive) throughout.

Broadly, the AC50 is the midpoint of the concentration-response curve, whichever way the signal moves. `COc1ccc(C2C3=C(CCCC3=O)N(CC(=O)O)C3=C2C(=O)CCC3)cc1`: the AC50 in the test “cells [3]” was 5.91 µM (active).

As to `COc1ccc(-n2nc(C(=O)NCC(=O)Nc3cccc(Cl)c3)c3ccccc3c2=O)cc1OC`, the AC50 in test [4] is 17.4 µM (active). Besides, in test [5], the IC50 was 83.9 µM (inactive).

For orientation: EC50 means the concentration that produces a half-maximal response. Turning to `Cc1ccc(NC(=O)NNC(=O)c2cc3ccccc3cc2O)cc1`, the EC50 is 13 µM (active) in [6], 14.9 µM (active) in test [7], 9.83 µM (active) in test [8] and > 100 µM (inactive) in test [9]. In addition, the IC50 on Albumin was > 94.1 µM (inactive).

`Cc1ccc(S(=O)(=O)Nc2ccc(-c3csc(-c4ccccc4)n3)cc2)cc1`: the IC50 in [10] and in test [12] was > 69.5 µM (inactive) in each case. In test [11], the AC50 was 3.5 µM (active).

With `CC(=O)c1cn(CC(=O)NCCc2c[nH]c3ccccc23)c2ccccc12`, the IC50 on Galanin receptor type 3 is 2.7 µM (active). The EC50 in “cells [13]” is > 29.9 µM (inactive).

In the case of `Cc1ccc(S(=O)(=O)Nc2cc(C(C(=O)OC(C)C)C(=O)C(F)(F)F)c(O)c3ccccc23)c(C)c1` (stereo unspecified), the AC50 on Keap1/Nrf2 was 2.67 µM (active); in test [14], 74.9 µM (active).

As to `CC(C)C(=O)Nc1nc(-c2ccc(S(=O)(=O)N3CCOCC3)cc2)cs1`, the values for the concentration for half-maximal inhibition (IC50) at Fatty acid synthase [15], on Fatty acid synthase [16] and on Fatty acid synthase [17] were 0.53 µM (active), 0.614 µM (active) and 0.874 µM (active), respectively.

Broadly, the Ki is the equilibrium dissociation constant of an inhibitor or competing ligand from its target. As for `CCOc1cc(C2C(C(=O)c3ccco3)=C(O)C(=O)N2CCc2ccccc2)ccc1O` (stereo unspecified), at fMet-Leu-Phe receptor, the Ki was > 66.7 µM (inactive).
